Reference: US20250388565A1, “ESTROGEN RECEPTOR ALPHA DEGRADERS AND METHODS OF USE THEREOF” (Relay Therapeutics, Inc., priority 2022, published 2025)

Target: T1, ERα protein (HiBiT-tagged) in ESR1_HiBiT KI MCF7 cells (Homo sapiens, UniProt P03372)
T1 sequence (P03372 1-595): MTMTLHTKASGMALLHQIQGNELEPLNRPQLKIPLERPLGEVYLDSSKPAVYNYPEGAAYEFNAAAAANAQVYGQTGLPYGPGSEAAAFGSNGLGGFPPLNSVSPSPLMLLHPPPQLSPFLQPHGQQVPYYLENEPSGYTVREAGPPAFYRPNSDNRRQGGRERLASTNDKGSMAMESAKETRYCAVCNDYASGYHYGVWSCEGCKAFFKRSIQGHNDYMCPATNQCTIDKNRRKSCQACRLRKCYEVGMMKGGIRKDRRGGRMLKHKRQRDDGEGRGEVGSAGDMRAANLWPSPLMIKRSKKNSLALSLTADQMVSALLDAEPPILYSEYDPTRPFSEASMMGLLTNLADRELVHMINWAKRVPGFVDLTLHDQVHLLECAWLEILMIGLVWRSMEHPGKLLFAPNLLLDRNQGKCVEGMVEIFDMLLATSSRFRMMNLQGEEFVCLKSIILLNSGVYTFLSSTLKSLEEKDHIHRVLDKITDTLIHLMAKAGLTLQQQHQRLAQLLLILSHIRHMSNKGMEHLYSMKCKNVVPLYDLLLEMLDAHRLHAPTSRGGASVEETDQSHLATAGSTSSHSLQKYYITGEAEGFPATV
Assay: Nano Glo HiBiT Lytic Degradation Assay
Type: cell-based
Conditions: 6 hours with compound, 14-point dose response 1:3, bell-shape curve fit, half-maximal effect of first Hill model, read-out: MCF7 ESR1 HiBiT - (DC50)
Method in brief: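 Lytic Nano-Glo HiBiT luminescence quantified ERα remaining after a 6 h, 37° C compound exposure of MCF7 cells carrying endogenous HiBiT-tagged ESR1. Dosing used 14 threefold dilutions from a 10 mM DMSO stock (0.1% DMSO final), run in duplicate. Signals were corrected for cell-free background and expressed relative to DMSO, and DC50 came from a bell-shaped curve fit (first Hill model half-maximum).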

| Structure (SMILES) | DC50 [nM] |
| --- | --- |
| C[C@]1(c2ccccc2)OCc2cc(O)ccc2[C@@H]1c1ccc(N2CCC(CN3CCN(c4ccc5c(c4)CN([C@H]4CCC(=O)NC4=O)C5=O)CC3)CC2)cc1 (single isomer, unassigned) [Compound I-345, (S)-3-(5-(4-((1-(4-((3*S,4*S)-7-hydroxy-3-methyl-3-phenylisochroman-4-yl)phenyl)piperidin-4-yl)methyl)piperazin-1-yl)-1-oxoisoindolin-2-yl)piperidine-2,6-dione] | 5 |
| NC(=O)C(CCC(=O)O)N1Cc2cc(N3CCN(CC4CCN(c5ccc([C@@H]6c7ccc(O)cc7CO[C@@H]6c6ccccc6)cc5)CC4)CC3)ccc2C1=O (stereo partly shown) [Compound I-399] | ≥ 10000 |
| Cc1cc(N2CCC(CN3CCN(c4ccc5c(c4)CN([C@H]4CCC(=O)NC4=O)C5=O)CC3)CC2)ccc1[C@H]1c2ccc(O)cc2CC[C@H]1c1ccccc1 [Compound I-138, (S)-3-(5-(4-((1-(4-((1S,2R)-6-hydroxy-2-phenyl-1,2,3,4-tetrahydronaphthalen-1-yl)-3-methylphenyl)piperidin-4-yl)methyl)piperazin-1-yl)-1-oxoisoindolin-2-yl)piperidine-2,6-dione] | ≥ 10000 |
| O=C1CCC(c2ccc(N3CC[C@]4(CCN(CC5CCN(c6ccc([C@@H]7c8ccc(O)cc8CC[C@@H]7c7ccccc7)cc6)CC5)C4)C3)cc2)C(=O)N1 (single isomer, unassigned) [Compound I-279] | 16.5 |
| O=C1CC[C@H](N2Cc3cc(N4C[C@H]5C[C@@H]4CN5CC4CCN(c5ccc([C@@H]6c7ccc(O)cc7CC[C@@H]6c6ccccc6)cc5)CC4)ccc3C2=O)C(=O)N1 (single isomer, unassigned) [II-5] | 2 |
| Cc1cc(F)cc([C@H]2OCc3cc(O)ccc3[C@H]2c2ccc(N3CCC(CN4CCN(c5ccc6c(c5)CN([C@H]5CCC(=O)NC5=O)C6=O)CC4)CC3)cc2)c1 [Compound I-377, (S)-3-(5-(4-((1-(4-((3S,4R)-3-(3-fluoro-5-methylphenyl)-7-hydroxyisochroman-4-yl)phenyl)piperidin-4-yl)methyl)piperazin-1-yl)-1-oxoisoindolin-2-yl)piperidine-2,6-dione] | 0.62 |
| O=C1CC[C@H](N2Cc3cc(N4CCN(CC5CCN(c6ccc([C@H]7c8ccc(O)cc8C(F)(F)C[C@H]7c7ccccc7)cc6)CC5)CC4)ccc3C2=O)C(=O)N1 [Compound I-13] | 13 |
| O=C1CC[C@@H](N2Cc3cc(N4CCN(CC5CCN(c6ccc([C@@H]7c8ccc(O)cc8C(F)(F)C[C@@H]7c7ccccc7)cc6)CC5)CC4)ccc3C2=O)C(=O)N1 [Compound I-306, (R)-3-(5-(4-((1-(4-((1R,2S)-4,4-difluoro-6-hydroxy-2-phenyl-1,2,3,4-tetrahydronaphthalen-1-yl)phenyl)piperidin-4-yl)methyl)piperazin-1-yl)-1-oxoisoindolin-2-yl)piperidine-2,6-dione] | 0.6 |
| O=C1CCC(c2ccc(N3CCN(CC4CCN(c5ccc([C@@H]6c7ccc(O)cc7CC[C@@H]6c6ccccc6)cc5)CC4)CC3)cc2)C(=O)N1 (stereo partly drawn) [Compound I-39, 3-[4-[4-[[1-[4-[(1R,2S)-6-hydroxy-2-phenyl-tetralin-1-yl]phenyl]-4-piperidyl]methyl]piperazin-1-yl]phenyl]piperidine-2,6-dione] | 469 |
| O=C1CC[C@H](N2Cc3cc(N4CCN(CC5CCN(c6ccc([C@H]7c8ccc(O)cc8CO[C@H]7c7ccccc7)cc6)CC5)CC4)ccc3C2=O)C(=O)N1 [Compound I-4, (S)-3-(5-(4-((1-(4-((3R,4S)-7-hydroxy-3-phenylisochroman-4-yl)phenyl)piperidin-4-yl)methyl)piperazin-1-yl)-1-oxoisoindolin-2-yl)piperidine-2,6-dione] | 59.4 |
| O=C1CCN(c2ccc(N3CCC4(CCN(CC5CCN(c6ccc([C@@H]7c8ccc(O)cc8CC[C@@H]7c7ccccc7)cc6)CC5)C4)CC3)cc2)C(=O)N1 [Compound I-291, 1-(4-(2-((1-(4-((1R,2S)-6-hydroxy-2-phenyl-1,2,3,4-tetrahydronaphthalen-1-yl)phenyl)piperidin-4-yl)methyl)-2,8-diazaspiro[4.5]decan-8-yl)phenyl)dihydropyrimidine-2,4 (1H,3H)-dione] | 0.7 |
| C[C@H]1C[C@@H](CN2CCN(c3ccc4c(c3)CN(C3CCC(=O)NC3=O)C4=O)CC2)CCN1c1ccc([C@@H]2c3ccc(O)cc3CC[C@@H]2c2ccccc2)cc1 (single isomer, unassigned) [II-49] | 6 |
| Cc1ccc([C@@H]2CCc3cc(O)ccc3[C@@H]2c2ccc(N3CCC(CN4CCN(c5ccc6c(c5)CN([C@H]5CCC(=O)NC5=O)C6=O)CC4)CC3)cc2)cc1 (single isomer, unassigned) [II-37] | 46 |
| O=C1CC[C@H](N2Cc3cc(N4CCN(CC5CCN(c6ccc([C@@H]7c8ccc(O)cc8C(F)(F)C[C@@H]7c7ccccc7)cn6)CC5)CC4)ccc3C2=O)C(=O)N1 [Compound I-202, (3S)-3-[5-[4-[[1-[5-[(1S,2S)-4,4-difluoro-6-hydroxy-2-phenyl-tetralin-1-yl]-2-pyridyl]-4-piperidyl]methyl]piperazin-1-yl]-1-oxo-isoindolin-2-yl]piperidine-2,6-dione] | 0.3 |
| C[C@]1(c2ccccc2)CCc2cc(O)ccc2[C@H]1c1ccc(N2CCC(CN3CCN(c4ccc5c(c4)CN([C@H]4CCC(=O)NC4=O)C5=O)CC3)CC2)cc1 [Compound I-147, (S)-3-(5-(4-((1-(4-((1S,2S)-6-hydroxy-2-methyl-2-phenyl-1,2,3,4-tetrahydronaphthalen-1-yl)phenyl)piperidin-4-yl)methyl)piperazin-1-yl)-1-oxoisoindolin-2-yl)piperidine-2,6-dione] | 0.42 |
| C[C@@H]1O[C@@H](C2CCCCC2)[C@H](c2ccc(N3CCC(CN4CCN(c5ccc6c(c5)CN([C@H]5CCC(=O)NC5=O)C6=O)CC4)CC3)cc2)c2ccc(O)cc21 (single isomer, unassigned) [Compound I-254] | 41 |
| Cc1cc(F)cc(F)c1[C@H]1CCc2cc(O)ccc2[C@H]1c1ccc(N2CCC(CN3CCN(c4ccc5c(c4)CN([C@H]4CCC(=O)NC4=O)C5=O)CC3)CC2)cc1 [II-74] | 0.13 |
| O=C1CC[C@H](N2Cc3cc(N4CCN(CC5CCN(c6ccc([C@@H]7c8ccc(O)cc8CC[C@@H]7c7ccccc7)c(F)c6)CC5)CC4)ccc3C2=O)C(=O)N1 [II-86] | 0.61 |
| O=C1CC[C@H](N2Cc3cc(N4CCN(CCC5CCN(c6ccc([C@@H]7c8ccc(O)cc8CC[C@@H]7c7ccccc7)cc6)CC5)CC4)ccc3C2=O)C(=O)N1 [II-97] | 0.79 |
| O=C1CC[C@H](N2Cc3cc(N4CCN(CC5CCN(c6ccc([C@@H]7c8ccc(O)cc8CO[C@@H]7CC7CC7)cc6)CC5)CC4)ccc3C2=O)C(=O)N1 (single isomer, unassigned) [Compound I-230] | 1 |
| O=C1CC[C@H](N2Cc3cc(N4CCN(CC5CCN(c6ccc([C@@H]7c8ccccc8CC[C@@H]7c7ccccc7)cc6)CC5)CC4)ccc3C2=O)C(=O)N1 [Compound I-47, (S)-3-(1-oxo-5-(4-((1-(4-((1R,2S)-2-phenyl-1,2,3,4-tetrahydronaphthalen-1-yl)phenyl)piperidin-4-yl)methyl)piperazin-1-yl)isoindolin-2-yl)piperidine-2,6-dione] | 79 |
| Cc1cc(F)ccc1[C@H]1CC(F)(F)c2cc(O)ccc2[C@H]1c1ccc(N2CCC(CN3CCN(c4ccc5c(c4)CN([C@H]4CCC(=O)NC4=O)C5=O)CC3)CC2)cc1 [Compound I-326, (S)-3-(5-(4-((1-(4-((1R,2S)-4,4-difluoro-2-(4-fluoro-2-methylphenyl)-6-hydroxy-1,2,3,4-tetrahydronaphthalen-1-yl)phenyl)piperidin-4-yl)methyl)piperazin-1-yl)-1-oxoisoindolin-2-yl)piperidine-2,6-dione] | 0.58 |
| O=C1CC[C@H](N2Cc3cc(N4CCN(CC5CCN(c6ccc([C@@H]7c8ccc(O)cc8CC[C@@H]7C7CCC8(CC7)CC8)cc6)CC5)CC4)ccc3C2=O)C(=O)N1 [Compound I-146] | 3 |
| C[C@@]1(N2Cc3cc(N4CCN(CC5CCN(c6ccc([C@@H]7c8ccc(O)cc8CC[C@@H]7c7ccccc7)cc6)CC5)CC4)ccc3C2=O)CCC(=O)NC1=O (single isomer, unassigned) [II-58] | ≥ 10000 |
| O=C1CC[C@H](N2Cc3cc(N4CCN(CC5CCN(c6ccc([C@@H]7c8ccc(O)cc8C(F)(F)C[C@@H]7c7ccc(C(F)(F)F)cc7)cc6)CC5)CC4)ccc3C2=O)C(=O)N1 [Compound I-329, (S)-3-(5-(4-((1-(4-((1R,2S)-4,4-difluoro-6-hydroxy-2-(4-(trifluoromethyl)phenyl)-1,2,3,4-tetrahydronaphthalen-1-yl)phenyl)piperidin-4-yl)methyl)piperazin-1-yl)-1-oxoisoindolin-2-yl)piperidine-2,6-dione] | 0.92 |
